In US20230086703A1, “N-(4-(5-chloropyridin-3-yl)phenyl)-2-(2-(cyclopropanesulfonamido)pyrimidin-4-yl) butanamide derivatives and related compounds as human CTPS1 inhibitors for the treatment of proliferative diseases” (Step Pharma S.A.S., priority 2019, published 2023):

Biological target: T1, human CTPS1 (Homo sapiens, UniProt P17812)
T1 construct: FLAG (with GG linker); His8 (with GG linker); purchased Proteros biostructures GmbH
T1 sequence (P17812 1-591): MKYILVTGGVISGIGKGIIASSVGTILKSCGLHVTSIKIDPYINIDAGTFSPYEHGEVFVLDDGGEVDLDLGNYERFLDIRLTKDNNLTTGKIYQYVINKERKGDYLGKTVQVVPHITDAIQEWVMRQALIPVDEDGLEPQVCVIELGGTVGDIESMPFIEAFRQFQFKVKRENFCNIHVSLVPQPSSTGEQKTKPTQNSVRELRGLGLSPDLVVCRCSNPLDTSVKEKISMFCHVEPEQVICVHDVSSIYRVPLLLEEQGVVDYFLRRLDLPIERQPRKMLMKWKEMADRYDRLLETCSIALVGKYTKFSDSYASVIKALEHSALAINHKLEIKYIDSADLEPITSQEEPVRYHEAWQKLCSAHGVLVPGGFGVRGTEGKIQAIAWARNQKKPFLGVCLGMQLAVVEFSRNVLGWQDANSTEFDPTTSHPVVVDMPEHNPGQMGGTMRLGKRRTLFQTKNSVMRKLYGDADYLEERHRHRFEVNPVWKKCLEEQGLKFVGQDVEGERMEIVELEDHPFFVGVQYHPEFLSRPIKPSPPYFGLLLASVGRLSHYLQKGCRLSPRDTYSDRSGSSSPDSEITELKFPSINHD
Assay: RapidFire/MS-based enzyme selectivity assay (human CTPS1 versus CTPS2), CTPS1 isoform
Format: biochemical
Method in brief: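 Full-length C-terminal FLAG-His-tagged CTPS1 (1-591) was preincubated 10 min at 25 °C with compound in HEPES pH 8.0 buffer with MgCl2, KCl, DTT and Tween-20. Reactions were started with a 2× mix of ATP 0.3 mM, UTP 0.2 mM, GTP 0.07 mM and L-glutamine 0.1 mM, and run in the linear phase at 25 °C. IC50 comes from the RapidFire-MS ratio of CTP to 13C9-15N3-CTP.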

[1] = Table 16, human CTPS1 over human CTPS2, RapidFire/MS IC50 values

## CCOc1cncc(-c2ccc(NC(=O)C3(c4ccnc(NS(=O)(=O)C5CC5)n4)CCN(S(C)(=O)=O)CC3)nc2)n1 [P251]
RapidFire/MS IC50 values of CTPS1 and CTPS2, Table 17
  Selectivity (fold selectivity between CTPS1 and CTPS2): +++ (>60 fold (+++))

## CCC(NC(=O)c1ccc(-c2cncc(C(F)(F)F)n2)cc1)c1csc(NS(=O)(=O)C2CC2)n1 (stereo not shown) [R5, N-(1-(2-(cyclopropanesulfonamido)thiazol-4-yl)propyl)-4-(6-(trifluoromethyl)pyrazin-2-yl)benzamide]
[1]
  Selectivity (fold selectivity between CTPS1 and CTPS2): + (2-30 fold (+))

## CCOc1cncc(-c2ccc(C(=O)NC(C)(C)c3csc(NS(=O)(=O)C4CC4)n3)c(OC)c2)n1 [R7, N-(2-(2-(cyclopropanesulfonamido)thiazol-4-yl)propan-2-yl)-4-(6-ethoxypyrazin-2-yl)-2-methoxybenzamide]
[1]
  Selectivity (fold selectivity between CTPS1 and CTPS2): ++ (>30-60 fold (++))

## CCOc1cncc(-c2ccc(C(=O)NCc3csc(NS(=O)(=O)C4CC4)n3)c(F)c2)n1 [R11, N-((2-(cyclopropanesulfon-amido)thiazol-4-yl)methyl)-4-(6-ethoxypyrazin-2-yl)-2-fluorobenzamide]
[1]
  Selectivity (fold selectivity between CTPS1 and CTPS2): ++ (>30-60 fold (++))

## CCC(CC)(NC(=O)c1ccc(-c2cncc(C(F)(F)F)n2)cc1)c1csc(NS(=O)(=O)C2CC2)n1 [R19, N-(3-(2-(cyclopropanesulfon-amido)thiazol-4-yl)pentan-3-yl)-4-(6-(trifluoromethyl)pyrazin-2-yl)benzamide]
[1]
  Selectivity (fold selectivity between CTPS1 and CTPS2): ++ (>30-60 fold (++))

## CCOc1cncc(-c2cnc(C(=O)NC(C)(C)c3csc(NS(=O)(=O)C4CC4)n3)c(F)c2)n1 [R23, N-(2-(2-(cyclopropanesulfon-amido)thiazol-4-yl)propan-2-yl)-5-(6-ethoxypyrazin-2-yl)-3-fluoropicolinamide]
[1]
  Selectivity (fold selectivity between CTPS1 and CTPS2): ++ (>30-60 fold (++))

## CC(C)(NC(=O)c1ccc(-c2cncc(Cl)n2)cn1)c1csc(NS(=O)(=O)C2CC2)n1 [R25, 5-(6-chloropyrazin-2-yl)-N-(2-(2-(cyclopropanesulfonamido)thiazol-4-yl)propan-2-yl)picolinamide]
[1]
  Selectivity (fold selectivity between CTPS1 and CTPS2): ++ (>30-60 fold (++))

## CCOc1cncc(-c2ccc(C(=O)NC(C)(C)c3csc(NS(=O)(=O)C4CC4)n3)nc2)n1 [R26, N-(2-(2-(cyclopropanesulfon-amido)thiazol-4-yl)propan-2-yl)-5-(6-ethoxypyrazin-2-yl)picolinamide]
[1]
  Selectivity (fold selectivity between CTPS1 and CTPS2): +++ (>60 fold (+++))

## CCc1cncc(-c2ccc(C(=O)NC(C)(C)c3csc(NS(=O)(=O)C4CC4)n3)c(F)c2)n1 [R41, N-(2-(2-(cyclopropanesulfon-amido)thiazol-4-yl)propan-2-yl)-4-(6-ethylpyrazin-2-yl)-2-fluorobenzamide]
[1]
  Selectivity (fold selectivity between CTPS1 and CTPS2): ++ (>30-60 fold (++))

## CC(C)(NC(=O)c1ccc(-c2cncc(C(F)(F)F)n2)cc1F)c1csc(NS(=O)(=O)C2CC2)n1 [R42, N-(2-(2-(cyclopropanesulfonamido)thiazol-4-yl)propan-2-yl)-2-fluoro-4-(6-(trifluoromethyl)pyrazin-2-yl)benzamide]
[1]
  Selectivity (fold selectivity between CTPS1 and CTPS2): ++ (>30-60 fold (++))

## CC(C)Oc1cncc(-c2ccc(C(=O)NC(C)(C)c3csc(NS(=O)(=O)C4CC4)n3)c(F)c2)n1 [R43, N-(2-(2-(cyclopropanesulfonamido)thiazol-4-yl)propan-2-yl)-2-fluoro-4-(6-isopropoxypyrazin-2-yl)benzamide]
[1]
  Selectivity (fold selectivity between CTPS1 and CTPS2): ++ (>30-60 fold (++))

## Cc1cc(-c2cncc(C(F)(F)F)n2)ccc1C(=O)NC(C)(C)c1csc(NS(=O)(=O)C2CC2)n1 [R45, N-(2-(2-(cyclopropanesulfonamido)thiazol-4-yl)propan-2-yl)-2-methyl-4-(6-(trifluoromethyl)pyrazin-2-yl)benzamide]
[1]
  Selectivity (fold selectivity between CTPS1 and CTPS2): ++ (>30-60 fold (++))

## CCOc1cncc(-c2ccc(C(=O)NC(C)(C)c3csc(NS(=O)(=O)C4CC4)n3)c(C)c2)n1 [R46, N-(2-(2-(cyclopropanesulfonamido)thiazol-4-yl)propan-2-yl)-4-(6-ethoxypyrazin-2-yl)-2-methyl benzamide]
[1]
  Selectivity (fold selectivity between CTPS1 and CTPS2): + (2-30 fold (+))
